Laboratory results: patent US20250123282A1, “METHODS FOR EVALUATION AND TREATMENT OF TYROSINE KINASE INHIBITOR (TKI)-RESISTANT ACUTE MYELOID LEUKEMIA” (LOMA LINDA UNIVERSITY, priority 2021, published 2025)

How the values were obtained:
MV4-11 cells = test: Human cytokine proteome profile array of cell-free supernatants from GILT-treated MV4-11; type: cell-based; details: 80 nM GILT, MV4-11, vs non-treatment control
Protocol: To identify the protein(s) responsible for initiation of the survival mechanism and subsequent proliferation of AML blasts, human cytokine proteome profile arrays of cell-free supernatants from GILT-treated MV4-11's cultures were performed. […] Under the no treatment (No Tx) condition, MV4-11 releases numerous cytokines such as MIF in their supernatant; however, one dose of GILT-treatment eliminated release of a variety of cytokines such as osteopontin (arrows, FIG. 7A), a protein closely associated with adverse prognosis in AML patients. Next, bone marrow mononuclear cells (BMMNC) from AML patients were treated for 3 days ex vivo.
Proteomics and Blotting Analysis. Three days after the one dose treatment, the cell-free supernatants were collected for human cytokine profile assay. The Human XL Cytokine Array Kit (Catalog #ARY022B, R&D) was used according to the manufacturer's procedures and exposed to X-ray film (<10 minutes). Profiles of mean spot pixel density were created using a transmission-mode scanner and Image J analysis software.

MOLM-14 cells [1] = test: Phase-bright imaging of re-growth of TKI-treated MOLM-14; type: cell-based, human; details: 10 days after TKI treatment
Text: To follow the cell fate of TKI-treated MV4-11 and MOLM-14, culturing of blasts were continued by performing medium change every 2-3 days. […] The BAD protein is a pro-apoptotic member of the BCL-2 gene family, which is involved in initiating apoptosis. Dephosphorylated BAD is pro-apoptotic by binding BCL-2 and inactivating BCL-2, while phosphorylated BAD (pBAD) is anti-apoptotic by leaving BCL-2 free to inhibit BAX-triggered apoptosis.
Small Molecular Inhibitors and in vitro & ex vivo Treatment. […] The dose of 80 nM for the four TKIs was selected based on their dose-dependent cytotoxicity in previous reports. […] Both GILT and QUIZ were reported to start to suppress the tumorigenic clustering and c-Kit at the dose of 80 nM. […] The combination of 5 μM 5-Azacitidine (AZA) and 80 nM 1α,25-Dihydroxyvitamin D3 (VD3) was added to the experimental group similar to the previous report. As combination agents to treat blasts in vitro, one dose of 80 nM GILT with one dose of either 100 nM Venetoclax (BCL2 inhibitor), 10 μM (R)-Lisofylline (STAT4 inhibitor), 100 nM AZD1208 (PIM inhibitor), 500 nM PF-06826647 (TYK2 inhibitor), or 500 nM AT9283 (JAK2/3 inhibitor) were added to 1 ml of 1×10^6 cells for each experimental group in 24 well plates. Three days after the one dose treatment, cells were then collected for either analyses by FACS and qPCR, or re-plated into 24 well plates for continued culture. […]

MOLM-14 cells [2] = test: FACS of TKI-treated MOLM-14 cells in vitro (viable blasts, pBAD); type: cell-based, human; details: 3 days after one dose of 80 nM TKI; vs non-treatment controls
Protocol: The AML cells were analyzed at different time points after exposure to TKI (3 days, 10 days, 20 days, and 28 days). […] After 3 days, FACS of the surface markers and intracellular proteins, including CD14, CD33, CD44, and Ki67, were performed. FIGS. 1A-1E depicts therapeutic effect of different TKIs on MV4-11 and MOLM-14 cells in vitro (N=6). […] The circles indicate the group of viable blasts located in a FACS plot and green arrows indicate the dying tendency of blasts which will become positive for viability dye during the next few days. FIGS. 1C and 1D are graphical representations of the cumulative FACS percentage data of viable MV4-11 and MOLM-14 cells. *P<0.05. […]
Flow Cytometry (FACS). […] About 1×10^4˜10^6 cells in 100 μl FACS buffer (PBS containing 1% FBS and 0.05% sodium azide) were stained with various fluorescence-conjugated antibodies specific for the desired cell surface proteins at 4° C. for 30 min. The surface-stained cells were then fixed and permeabilized using the appropriate reagents (e.g. the BD Pharmingen Cytofix/Cytoperm buffer) and stained with different fluorescence-conjugated antibodies specific for the desired intracellular proteins at 4° C. for 2 hours in the permeabilizing buffer (e.g. the BD Perm/Wash buffer). […] Finally, the cells were washed twice in the permeabilizing buffer and twice in the FACS buffer before being analyzed on the BD FACSAria II. […]

| Compound | MIF increase in the supernatant (mean pixel density) (MV4-11 cells) [fold] | re-growth / tumorigenic clusters of MOLM-14 (MOLM-14 cells [1]) | viable MOLM-14 blasts (FACS) (MOLM-14 cells [2]) |
| --- | --- | --- | --- |
| CCc1nc(C(N)=O)c(Nc2ccc(N3CCC(N4CCN(C)CC4)CC3)c(OC)c2)nc1NC1CCOCC1 [GILT, Gilteritinib] | 2.6 | – | – |
| CC(C)(C)c1cc(NC(=O)Nc2ccc(-c3cn4c(n3)sc3cc(OCCN5CCOCC5)ccc34)cc2)no1 [QUIZ, Quizartinib] | – | few newly formed tumorigenic clusters | more effective |
